For data set [1] the following is noted: doses of 40 mg and 80 mg; cited from earlier work.
The next data set relates to Smad2/3 phosphorylation. The conditions noted are these: cited from earlier work.
The subject of another data set is mammary epithelial cells. The conditions noted are these: cited from earlier work.
Data set [2] deals with TGF-β types I and II receptors. The conditions noted are these: cited from earlier work.
Another data set relates to let-7 family miRNAs. The data set can be described thus: qRT-PCR let-7 miRNA expression in endothelial cells. The conditions noted are these: normal EC (HUAEC); U0126 at 10 μM. The class given is cell-based, human. On the procedure: Quantitative PCR analysis of 88 miRNA was performed using Human Cell Differentiation & Development RT^2 Profiler™ PCR Arrays (MAH-103A, QIAGEN) following the manufacturer's protocol. Validation of microRNA array data was performed with the RT^2 miRNA qPCR Assays and RT-PCR Primer Sets according to the manufacturer's instructions (QIAGEN). Primers for human mature let-7a (MPH00001A), let-7b (MPH00002A), let-7c (MPH00003A), let-7d (MPH00004A), let-7e (MPH00005A), let-7f (MPH00006A), let-7g (MPH00007A), mir-98 (MPH00480A), SNORD47 (MPH01660A) were from QIAGEN. Primers for mouse mature let-7a (MPM00483A), let-7b (MPM00484A), let-7c (MPM485A), let-7d (MPM00486A), let-7e (MPM00487A), let-7f (MPM00488A), let-7g (MPM00489A), let-7i (MPM00490A), mir-98 (MPM00875A) were from QIAGEN. Individual miRNA expression was normalized in relation to expression or small nuclear U6B RNA, a commonly used internal control for miRNA quantification assay. PCR amplification consisted of 10 min of an initial denaturation step at 95° C., followed by 45 cycles of PCR at 95° C. for 30 s, 60° C. for 30 s.
Recombinant human FGF2 (R&D) and TGFβ1 (Peprotech) were reconstituted in 0.1% BSA/PBS. U0126 (Sigma), a MEK inhibitor, was reconstituted in DMSO and used at a final concentration of 10 μM. […]
In general terms: Real-time PCR tracks product formation cycle by cycle.

For data set [3], the system named is TGF-β1-induced smad2/3 nuclear localization. The conditions noted are these: cited from earlier work.
The next data set deals with HUAEC. The data set can be described thus: qRT-PCR mRNA expression of TGFβ signaling and Endo-MT markers in endothelial cells. Type of data set: cell-based, human. The conditions noted are these: primary EC in vitro following FRS2 knockdown; lentiviral let-7 expression. An excerpt: Human 293T T17 cells (ATCC CRL-11268) were maintained in Dulbecco's modified Eagle's medium (Gibco) with 10% fetal bovine serum (Invitrogen) and penicillinstreptomycin (Gibco). Primary human mammary epithelial cells (HuMEC, Invitrogen), were maintained in HuMEC basal serum free medium with HuMEC supplement (Invitrogen 12754-016) and bovine pituitary extract (Invitrogen 13028-014). Human foreskin cells (ATCC CRL-1079Sk) were maintained in Minimum Essential Medium (ATCC) with 10% fetal bovine serum (Hyclone), β-mercaptoethanol (Sigma), and penicillin-streptomycin (Gibco). Primary human atrial cells (passage 3-5; gift from Y. Qyang, Yale University School of Medicine) were maintained in Dulbecco's modified Eagle's medium (Gibco) with 10% fetal bovine serum (Invitrogen), L-glutamine (Gibco), Sodium pyruvate (Gibco), Non-essential amino acid (Gibco), and penicillin-streptomycin (Gibco). HUAEC (human umbilical artery endothelial cells, passage 5-10, Lonza) were cultured in EBM-2 supplemented with EGM-2-MV bullet kit (Lonza). HUVEC (human umbilical vein endothelial cells, passage 3-7, Yale Vascular Biology and Therapeutics) were cultured in M199 with ECGS, supplemented with 20% FBS (Sigma), L-glutamine (Gibco), and penicillin-streptomycin (Gibco). Culture vessels were coated with 0.1% gelatin (Sigma) for 30 min at 37° C. immediately prior to cell seeding. Primary mouse endothelial cells were isolated from the heart using rat anti-mouse CD31 antibody and Dynabeads (Invitrogen) as previously described (Partovian C, et al. Mol Cell. 32(1):140 (2008)).
RNA was isolated using RNeasy® plus Mini Kit (Qiagen) and converted to cDNA using iScript™ cDNA synthesis kit (Bio-Rad). Quantitative real-time PCR (qRT-PCR) was performed using Bio-Rad […] (Bio-Rad) by mixing equal amount of eDNAs, iQ™ SYBR® Green Supermix (Bio-Rad) and gene specific primers. All reactions were done in a 25 μl reaction volume in duplicate. Data were normalized to endogenous β-actin. Values are expressed as fold change in comparison to control. Mouse TGFβ gene expression was quantified via qRT-PCR with TaqMan® Gene Expression Assays (Mm00441726_m1; Applied Biosystems) and HPRT (Mm00441258_1; Applied Biosystems) as endogenous control followed the manufacturer's recommendation. Quantitative PCR analysis of 84 TGFβ and epithelial to mesenchymal transition (EMT) related genes were performed using Human TGFβ BMP signaling pathway (PAHS-035D, QIAGEN) and Human Epithelial to Mesenchymal Transition (PAHS-090D, QIAGEN) RT^2 Profiler™ PCR Arrays following the manufacturer's protocol. RT^2 Profiler™ PCR arrays were run on a Bio-Rad CFX96 machine (Bio-Rad). Duplicate arrays were run per condition for control and FRS2 knockdown human umbilical arterial endothelial cells (HUAEC). Data analysis was performed using the manufacturer's integrated web-based software package for the PCR Array System using cycle threshold (Ct)-based fold-change calculations.
Recombinant human FGF2 (R&D) and TGFβ1 (Peprotech) were reconstituted in 0.1% BSA/PBS. U0126 (Sigma), a MEK inhibitor, was reconstituted in DMSO and used at a final concentration of 10 μM. SB431542 (Sigma), a TGFBR1 kinase inhibitor, was reconstituted in DMSO and used at a final concentration of 10 μM in cell culture. Actinomycin D (Sigma), a DNA transcription suppressor, was reconstituted in acetone and used at a final concentration of 10 μg/ml in cell culture. […]

Turning to `Cc1cccc(-c2nn3c(c2-c2ccnc4ccc(C(N)=O)cc24)CCC3)n1` [LY2157299, 4-(2-(6-methylpyridin-2-yl)-5,6-dihydro-4H-pyrrolo[1,2-b]pyrazol-3-yl)quinoline-6-carboxamide], in data set [1], the Tolerability result is “well tolerated”.

As for `Cc1cccc(-c2nc(C34CCC(C(N)=O)(CC3)CC4)[nH]c2-c2ccc3c(c2)OCO3)n1` [SM16, 4-(5-(benzo[d][1,3]dioxol-5-yl)-4-(6-methylpyridin-2-yl)-1H-imidazol-2-yl)bicyclo[2.2.2]octane-1-carboxamide], in the data set on Smad2/3 phosphorylation, the “TGF-β and activin-induced Smad2/3 phosphorylation” value is reported as “blocks”.

`Cc1cccc(-c2nc(NCc3cccc(C#N)c3)sc2-c2ccc3ncnn3c2)n1` [EW-7203, 3((5-([1,2,4]triazolo[1,5-a]pyridin-6-yl)-4-(6-methylpyridin-2-yl)thiazol-2-ylamino)methyl)benzonitrile]: in the data set on mammary epithelial cells, the Endo-MT entry is on record as “inhibits” and the “TGF-β1-induced Smad signaling” value is listed as “inhibits”.

For `CCCCc1nc(Cl)c(CO)n1Cc1ccc(-c2ccccc2-c2nnn[nH]2)cc1` [Losartan, (2-butyl-4-chloro-1-{[2′-(1H-tetrazol-5-yl)biphenyl-4-yl]methyl}-1H-imidazol-5-yl)methanol], the “Expression of TGF-β types I and II receptors” value in data set [2] is recorded as “downregulate”.

With `N#CC(=C(/N)Sc1ccccc1N)/C(C#N)=C(\N)Sc1ccccc1N` [U0126], in the data set on let-7 family miRNAs, the “Expression of let-7 family miRNAs” value is “decrease”.

Turning to FGF2: Recombinant human FGF2 (R&D), the “Expression of let-7 family miRNAs” value in the data set with let-7 family miRNAs was “time dependent increase”.

In the case of `Cc1cccc(-c2[nH]c(C(C)(C)C)nc2-c2ccc3nccnc3c2)n1` [SB525334, 6-[2-(1,1-Dimethylethyl)-5-(6-methyl-2-pyridinyl)-1H-imidazol-4-yl]quinoxaline], in data set [3], the “TGF-β1-induced mRNA expression” value is listed as “inhibits” and the “TGF-β1-induced smad2/3 nuclear localization” value is recorded as “inhibits”.

B1: Let-7b/c: let-7b and let-7c miRNAs expressed from lentivirus vector (pre-let-7b, pre-let-7c) (nucleic acid, listed as Homo sapiens)
chain: GCAUCCGGGUUGAGGUAGUAGGUUGUAUGGUUUAGAGUUACACCCUGGGAGUUAACUGUACAACCUUCUAGCUUUCCUUGGAGC
For B1, in the data set with HUAEC, the “Expression of all SMC and mesenchymal markers” value is listed as “declined to pre-FRS2 knockdown levels”; the “TGFβR1 and SMAD2 expression” value is “fully inhibited”.

(Values after patent US9782522B2, “Compositions and methods for treating and preventing neointimal stenosis” (Yale University, priority 2011, dated 2017).)
